Measurements published in article PMC3997483, “Aminostyrylbenzofuran Directly Reduces Oligomeric Amyloid-β and Reverses Cognitive Deficits in Alzheimer Transgenic Mice” (PLoS ONE, 2014).

Key:
APP/PS1 TG mice = assay: Contextual fear conditioning, therapeutic trial; type: in vivo, mouse; conditions: PO 30 mg/kg/day, 3 months, TG 20.0%
Method: Behavioral tests were performed in the following sequence: Y-maze (day 1), Morris water maze (day 4 to 12) and contextual fear conditioning (day 26 to 27). To reduce stress, contextual fear conditioning was carried out 2 weeks after the Morris water maze task. In the therapeutic trial, APP/PS1 TG mice were treated with KMS88009 (30 mg/kg/day) for 3 months from 9 to 12 months of age. Y-maze tests short-term spatial working memory. Y-maze is a 3-armed (40 L×10 W×12 H cm) horizontal maze in which the arms are symmetrically disposed at 120° angles from each other. Mice were placed at the end of one arm and allowed to move freely through the maze during a 5-min session. Arm entry was considered completed when the hind paws of the mouse were completely placed in the arm. Alternation was defined as successive entries into the 3 arms on overlapping triplet sets. The series of arm entries was recorded via video recorders. […] During each trial session, the time taken to find the hidden platform (latency) was recorded using a video camera-based Ethovision System (Nodulus, Nertherlands). […] Swimming time was recorded during mice were in the pool quadrant where the platform had been previously located. […] Fear conditioning task was measured to test the ability to learn and remember an association between an aversive experience and environmental cues. […] Freezing response was measured without CS or US. […]

soluble Aβ oligomers = assay: Dot-blot immunoassay (A11/6E10) of soluble Aβ oligomers in hippocampus, prophylactic trial; type: in vivo, mouse; conditions: hippocampus soluble fraction
Method: Mice subjected to behavior tests were sacrificed and levels of Aβ in their brains were analyzed. After removing olfactory lobe and cerebellum of brain, hippocampus and cerebral cortex were separated. The separated regions were Dounce-homogenized first in 10-fold mass of a lysis buffer (RIPA, 150 mM NaCl, 1% NP-40, 0.5% deoxycholic acid, 0.1% SDS and 50 mM tris, pH 8.0) or tris buffer (50 mM tris and pH 8.0) containing protease inhibitor cocktail (Pierce, USA) for prophylactic or therapeutic treatment groups, respectively. The homogenates were then centrifuged at 16,000 g for 20 min at 4°C. The supernatant (soluble Aβ fraction) was collected and stored at −70°C until analyzed. The resulting pellet was solubilized in 20-fold mass of cold guanidine solution (5 M guanidine HCl, 50 mM tris HCl and pH 8.0) at room temperature for 4 hr followed by dilution with cold Dulbecco's phosphate buffered saline (PBS) with 5% BSA and 0.03% tween-20. The diluent was centrifuged at 16,000 g for 20 min at 4°C to obtain the insoluble Aβ fraction. The tissue concentrations of Aβ40 and Aβ42 in the soluble and insoluble fraction were measured using Aβ-detecting sandwich enzyme-linked immunosorbent assay (ELISA) kit (BioSource, USA). The levels of soluble Aβ oligomers were measured by a dot-blot immunoassay with an anti-oligomer antibody and an anti-Aβ antibody on soluble fraction of hippocampus homogenates. The homogenate sample (3 µL) was spotted onto nitrocellulose membrane (Whatman, UK). After blocking with 5% BSA in tris-buffered saline (TBS) for 1 hr at room temperature, the membrane was incubated with rabbit anti-oligomer polyclonal antibody (A11; 1∶1,000; Millipore, USA) overnight at 4°C, followed by incubation with HRP-secondary anti-rabbit antibody (1∶5,000; Millipore, USA) for 1 hr at room temperature. Blots were developed using ECL reagents (PerkinElmer, USA). […] The density of dots was analyzed with Multi Gauge program (Fuji Film, Japan) and the data was normalized to the average density of the TG control group. […]

COc1ccc2cc(C=Cc3ccc(N(C)C)cc3)oc2c1 [KMS88009, 6-methoxy-2-(4-dimethylaminostyryl) benzofuran] was tested, and the “freezing response (contextual fear conditioning)” value (APP/PS1 TG mice) was 48.3%, the “reduction of soluble oligomeric Aβ vs vehicle-treated TG group” value (“reduction of soluble oligomeric Aβ” below) (soluble Aβ oligomers; 10 mg/kg/day) was 43.1% and the “reduction of soluble oligomeric Aβ” value (soluble Aβ oligomers; 30 mg/kg/day) was 43.2%. For the same compound, the “reduction of soluble oligomeric Aβ” value (soluble Aβ oligomers; 100 mg/kg/day) was 46.4%.
